Experimental data as given in patent US9624758B2, “Use of oligo-quaternary compositions to increase scale inhibitor lifetime in a subterranean formation” (Ecolab USA Inc., priority 2012, dated 2017).
Like-named read-outs stand apart in the source and are kept apart here.

How the values were obtained:
[1] = Microtox; format: cell-based
Description: (§1) Product A was evaluated for toxicity using various tests.

[2] = Biodegradation
Description: as §1

[3] = system: Daphnia Magna; assay: Toxicity: EC50 Daphnia Magna; format: in vivo
Description: as §1

[4] = format: cell-based
Description: as §1

[5] = system: Rat; assay: Toxicity: LC50 Rat; conditions: in vivo
Description: as §1

[6] = system: Algae; assay: Toxicity: EC50 Algae
Description: as §1

[7] = Toxicity: LC50 Fathead Minnow; conditions: in vivo
Description: as §1

[8] = Compatibility test of scale inhibitor solutions with Product A solution in synthetic brine; format: physicochemical; set-up: key: C—Clear; P—Precipitate; conditions: for Clarity of Mixed Solutions 10:90: ratio 10:90; for Clarity of Mixed Solutions 50:50: ratio 50:50
Excerpt: Individual solutions (Solutions 1B through 1G) of 10% Product B, C, D, E, F and G, respectively, in a synthetic brine (see the table below showing the synthetic brine composition) were mixed with a 10% solution (Solution 2) of Product A in the synthetic brine. The two sets of solutions were mixed with Solution 2 (i.e., each of Solutions 1B through 1G were mixed with Solution 2) at ratios of 10:90, 30:70, 50:50, 70:30 and 90:10 to indicate that no precipitate would form at any concentration in the mixing concentration range from 10:90 to 90:10. These compatibility screening tests indicate that it is unlikely for any incompatibility to be experienced during deployment and flow back of a squeeze treatment. Any incompatibilities under ambient conditions were observed visually from solution clarity and/or precipitate. The samples were then heated to the test temperature (80° C.) and any further incompatibilities after 2 and 24 hours recorded.

[9] = Coreflood on Bandera outcrop cores; conditions: post versus pre treatment
Description: Two corefloods were carried out simultaneously on two Bandera outcrop cores (1.5″ diameter by 3″ length), using a Scaled Solutions dual coreflood apparatus. The composition of these cores is set out in the table below:
Both cores were wrapped with PTFE tape and cased in heat shrink tubing prior to insertion into a Viton sleeve and mounted in a Hassler type core holder with a confining pressure of 1200 psi. Both cores were then flushed with synthetic brine at 1 mL/min for at least 2 hours and until the differential pressure was stable. Brine was flushed at 0.5 mL/min overnight.
Both cores were saturated with synthetic brine under ambient conditions in the forward direction at 1 mL/min for 10 minutes, 2 mL/min for 10 minutes, 3 mL/min for 10 minutes, and 4 mL/min for 2 hours and until the differential pressure was stable. After a stable differential pressure was achieved, the permeability to brine was measured in the forward flow by flooding at 4, 3, 2, 1 mL/min at room temperature.
Brine was then injected into both cores in the forward direction at 1 mL/min until the oven reached a temperature of 80° C. […] Following plug saturation, the permeability of each core to synthetic brine was measured in the forward flow by flooding at 4, 3, 2, and 1 mL/min at 80° C. […]
Both cores were injected with synthetic brine at 2 mL/min with effluent samples being collected. The samples were analyzed by ICP. […]

[10] = 10% scale inhibitor solution : 10% Product A solution in synthetic brine, ambient, then 80° C. 2 and 24 hours
[11] = 10% solutions in synthetic brine, with Product A
[12] = ratio 30:70 (second column), 10% solutions in synthetic brine, with Product A
[13] = ratio printed 30:70 (fourth column), 10% solutions in synthetic brine, with Product A

With C[N+](C)(C)CC(O)C[N+](C)(C)C.[Cl-].[Cl-] [Product A, 1,3-propandiaminium, 2-hydroxy-N,N,N,N′,N′,N′-hexamethyl-, dichloride] the IC50 ([1]; 5 min, read-out: 5-min IC50 (95% CI)) was > 4000 µg/mL, the IC50 ([1]; 0.25 h, 15 min, read-out: 15-min IC50 (95% CI)) was > 4000 µg/mL and the Biodegradation [2] was 9%. For the same molecule, the EC50 [3] was 186 µg/mL, the “Ames Test” value [4] was “Non-” and the “LC50 Rat” value [5] was 4,000 mg/kg. For the same molecule, the EC50 [6] was 1500 µg/mL and the LC50 [7] was > 1000 µg/mL.
With O=P(O)(O)CN(CCCCCCN(CP(=O)(O)O)CP(=O)(O)O)CCCCCCN(CP(=O)(O)O)CP(=O)(O)O [Product B, BHMT phosphonate] the “Clarity of Mixed Solutions 10:90” value [8, 10] was “C”, the “Clarity of Mixed Solutions 10:90” value [8, 11] was “C” and the “Clarity of Mixed Solutions 30:70” value [8, 12] was “C”. For the same molecule, the “Clarity of Mixed Solutions 50:50” value [8, 11] was “C”, the “Clarity of Mixed Solutions 30:70” value [8, 13] was “C” and the “Permeability Recovery” value [9] was 75%.
For DETA phosphonate [Product C], the “Clarity of Mixed Solutions 10:90” value [8, 10] was “C”, the “Clarity of Mixed Solutions 10:90” value [8, 11] was “C” and the “Clarity of Mixed Solutions 30:70” value [8, 12] was “C”. The “Clarity of Mixed Solutions 50:50” value [8, 11] was “C” and the “Clarity of Mixed Solutions 30:70” value [8, 13] was “C”.
